According to patent US20250066347A1, “SUBSTITUTED THIAZOLIDINEDIONE DERIVATIVE COMPOUND, AND PHARMACEUTICAL COMPOSITION FOR PREVENTING OR TREATING CANCER, COMPRISING SAME” (MEDIFIC, INC., priority 2021, published 2025):

What was measured:
SREBP = experiment: Cell-based assay system using a 6xSRE reporter vector (copGFP intensity) in HOG-GSC-6xSRE-copGFP_HIGH cells; parameters: dose or concentration left out as unconfirmed; conditions: copGFP intensity normalized to DMSO control = 1, 72 hours
From the text: First, as shown in (a) of FIG. 1, SRE(5′-ATCACCCCAC-3′) 6 copies which are DNA seCuences to which a transcription factor, SREBP active form bonds were inserted into a minimal CMV promoter 5′ front end of a pGreenfire-Lenti-reporter vector to produce a 6xSRE reporter vector. The 6xSRE reporter vector is a vector system in which a minimal CMV promoter is activated only when SREBP in an activated form bonds to 6xSRE and copGFP is expressed, and after the vector was introduced to HOG-GSC which is a brain tumor stem cell, separation into a GFP high cell and a GFP low cell through FACS sorting was performed. Each of SREBP1a and SREBP1c in an active form was overexpressed in separated GFP-low cells (b of FIG. 1), and it was measured therefrom whether the expression amount of GFP was increased. As a result, it was confirmed that the overexpression of SREBP1a and SREBP1c active forms increased GFP expression by 43.30% and 93.49%, in separated GFP-low cells (c of FIG. 1). The separated GFP-high cells were treated with each of fatostatin and FGH10019 known to inhibit activity of DMSO and SREBP which was a control group to measure a change in the expression amount of GFP, and, as a result, it was confirmed that when treated with known materials, fatostatin and FGH10019, the expression of GFP was inhibited by up to 50% (d of FIG. 1).
HOG-GSC-6xSRE-copGFP_HIGH cells were dispensed into a 96-well plate (Corning) at 5000/well, each well was treated […], and then all wells were photographed every 3 hours for 72 hours in an incubator (ThermoFisher) at […], 5% CO2, using real-time cell imaging equipment (Incucyte) to photograph changes in copGFP intensity.

HOG-GSC cells = experiment: Comparison of cell viability in brain tumor stem cell (MTS assay); assay type: cell-based; conditions: 72 hours, DMSO control = 1, value below 0.5 = viability decreased by 50% or more
Protocol: HOG-GSC cells which are brain tumor stem cells were treated with 11 compounds at 10 μM and DMSO as a control group, and the number of surviving cells after 72 hours was evaluated by MTS assay.
HOG-GSC which is a brain tumor stem cell was seeded on a 96-well plate at 5000 cells per well, and was cultured in an incubator (ThermoFisher) at 37° C. and 5% CO2 for 24 hours for stabilization of cells. Thereafter, it was treated with 11 compounds of the present invention at […] each, and treated with the same volume of DMSO as a control group as the volume of each compound. After treatment with the compound of the present invention and the control group, cells were cultured in an incubator at 37° C. and 5% CO2 for 72 hours. Thereafter, since there were many living cells in each well, cell viability was quantified using a cell viability assay kit (LPS solution) of which the color becomes darker with an increase in the number of cells. After treatment with the cell viability assay solution, a reaction was performed in an incubator at 37° C. and 5% CO2 for 3 hours to perform coloration, absorbance at 450 nm was measured using a microplate reader (BioTek), and an absorbance intensity of the control group was set to 1 and the absorbance of cells treated with each compound was normalized and is shown in FIG. 2.

Row | Compound | activity (SREBP) [%] | cell viability inhibition effect (normalized MTS value) (HOG-GSC cells)
1 | CC(C)(C)c1ccc(-n2cccc2/C=C2\SC(=O)NC2=O)cc1 [Compound 3, (Z)-5-((1-(4-(tert-butyl)phenyl)-1H-pyrrol-2-yl)methylene) thiazolidine-2,4-dione] | 1 | significant cell viability inhibition effect
2 | Cc1ccc(-c2cc(/C=C3\SC(=O)NC3=O)ccn2)cc1 [Compound 10, (Z)-5-((2-(p-tolyl)pyridin-4-yl)methylene)thiazolidine-2,4-dione] | 8.8 | significant cell viability inhibition effect
3 | O=C1NC(=O)/C(=C/c2ccnc(-c3ccc(C(F)(F)F)cc3)c2)S1 [Compound 12, (Z)-5-((2-(4-(trifluoromethyl)phenyl)pyridin-4-yl)methylene) thiazolidine-2,4-dione] | 5.9 | significant cell viability inhibition effect
4 | O=C1NC(=O)/C(=C/c2ccnc(-c3ccc(OC(F)(F)F)cc3)c2)S1 [Compound 14, (Z)-5-((2-(4-(trifluoromethoxy)phenyl)pyridin-4-yl)methylene) thiazolidine-2,4-dione] | 1.7 | significant cell viability inhibition effect
5 | O=C1NC(=O)/C(=C/c2ccnc(-c3ccc(OCc4ccccc4)cc3)c2)S1 [Compound 15, (Z)-5-((2-(4-(benzyloxy)phenyl)pyridin-4-yl)methylene)thiazolidine-2,4-dione] | 8.6 | significant cell viability inhibition effect
6 | CC(C)(C)c1cccc(-c2cc(/C=C3\SC(=O)NC3=O)ccn2)c1 [Compound 18, (Z)-5-((2-(3-(tert-butyl)phenyl)pyridin-4-yl)methylene)thiazolidine-2,4-dione] | 1.3 | significant cell viability inhibition effect
7 | Cc1cc(C)cc(-c2cc(/C=C3\SC(=O)NC3=O)ccn2)c1 [Compound 19, (Z)-5-((2-(3,5-Dimethylphenyl)pyridin-4-yl)methylene)thiazolidine-2,4-dione] | 1.8 | significant cell viability inhibition effect
8 | O=C1NC(=O)/C(=C/c2ccc(-c3ccc(OC(F)(F)F)cc3)nc2)S1 [Compound 25, (Z)-5-((6-(4-(trifluoromethoxy)phenyl)pyridin-3-yl)methylene) thiazolidine-2,4-dione] | 6.3 | significant cell viability inhibition effect
9 | CC(C)(C)c1ccc(-c2cncc(/C=C3\SC(=O)NC3=O)c2)cc1 [Compound 28, (Z)-5-((5-(4-(tert-butyl)phenyl)pyridin-3-yl)methylene)thiazolidine-2,4-dione] | 4.8 | significant cell viability inhibition effect
10 | CC(C)(C)c1ccc(-c2ccnc(/C=C3\SC(=O)NC3=O)c2)cc1 [Compound 31, (Z)-5-((4-(4-(tert-butyl)phenyl)pyridin-2-yl)methylene)thiazolidine-2,4-dione] | 4.5 | significant cell viability inhibition effect
